Data as given in patent publication US8003800B2, “Thiophene derivatives as S1P1/EDG1 receptor agonists” (Actelion Pharmaceuticals Ltd., priority 2006, dated 2011).

Key:
[1] = molecular target: recombinant human S1P1 receptor (Homo sapiens, UniProt P21453); assay: GTPγS assay to determine EC50 values; format: biochemical; settings: 35S-GTPγS binding, membrane preparations of CHO cells expressing recombinant human S1P1 receptor, pH 7.4
Method: GTPγS binding assays are performed in 96 well microtiter plates (Nunc, 442587) in a final volume of 200 μl, using membrane preparations of CHO cells expressing recombinant human S1P1 receptor. Assay conditions are 20 mM Hepes (Fluka, 54461), 100 mM NaCl (Fluka, 71378), 5 mM MgCl2 (Fluka, 63064), 0.1% BSA (Calbiochem, 126609), 1 μM GDP (Sigma, G-7127), 2.5% DMSO (Fluka, 41644), […] ^35S-GTPγS (Amersham Biosciences, SJ1320). The pH is 7.4. Test compounds are dissolved and diluted in 100% DMSO and pre-incubated at room temperature for 30 min in 150 μl of the above assay buffer, in the absence of ^35S-GTPγS. After addition of 50 μl of ^35S-GTPγS, the assay is incubated for 1 h at rt. The assay is terminated by transfer of the reaction mixture to a Multiscreen plate (Millipore, MAHFC1H60) using a cell harvester from Packard Biosciences, and the plates are washed with ice-cold 10 mM Na2HPO4/NaH2PO4 (70%/30%), dried, sealed at the bottom and, after addition of 25 μl MicroScint20 (Packard Biosciences, order #6013621), sealed on the top. Membrane-bound ^35S-GTPγS is measured with a TopCount from Packard Biosciences.
EC50 is the concentration of agonist inducing 50% of the maximal specific ^35S-GTPγS binding. Specific binding is determined by subtracting non-specific binding from maximal binding. Maximal binding is the amount of cpm bound to the Multiscreen plate in the presence of 10 μM of S1P. Non-specific binding is the amount of binding in the absence of an agonist in the assay.
The EC50 values were determined according to the method described above: […]

[2] = test system: circulating lymphocytes; assay: Assessment of in vivo efficacy: circulating lymphocytes after oral administration; design: unit not given here; settings: 6 h after oral administration of 10 mg/kg to normotensive male Wistar rats, as compared to vehicle-treated group; mean±SEM
Method: The efficacy of the compounds of Formula (I) is assessed by measuring the circulating lymphocytes after oral administration of 3 to 30 mg/kg of a compound of Formula (I) to normotensive male Wistar rats. The animals are housed in climate-controlled conditions with a 12 h-light/dark cycle, and have free access to normal rat chow and drinking water. Blood is collected before and 3, 6 and 24 h after drug administration. Full blood is subjected to hematology using Advia Hematology system (Bayer Diagnostics, Züurich, Switzerland).
All data are presented as mean±SEM. Statistical analyses are performed by analysis of variance (ANOVA) using Statistica (StatSoft) and the Student-Newman-Keuls procedure for multiple comparisons. The null hypothesis is rejected when p<0.05.

recombinant human S1P1 receptor, sequence (P21453 whole entry): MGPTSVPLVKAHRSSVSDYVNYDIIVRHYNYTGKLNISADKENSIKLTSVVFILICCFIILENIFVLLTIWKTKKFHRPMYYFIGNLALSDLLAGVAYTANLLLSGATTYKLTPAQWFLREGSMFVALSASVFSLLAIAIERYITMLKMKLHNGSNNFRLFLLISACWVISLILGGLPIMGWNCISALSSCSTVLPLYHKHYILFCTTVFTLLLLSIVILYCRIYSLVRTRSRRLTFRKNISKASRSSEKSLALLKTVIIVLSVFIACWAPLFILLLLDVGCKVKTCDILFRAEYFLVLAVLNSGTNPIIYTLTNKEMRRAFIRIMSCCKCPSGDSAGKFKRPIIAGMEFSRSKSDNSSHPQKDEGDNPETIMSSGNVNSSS

| Structure (SMILES) | EC50 [1] | Lymphocyte counts [2] |
| --- | --- | --- |
| CCCc1c(CC(C)C)csc1C(=O)/C=C/c1cc(C)c(O)c(C)c1 [Example 3, 3-(4-Hydroxy-3,5-dimethyl-phenyl)-1-(4-isobutyl-3-propyl-thiophen-2-yl)-propenone] | 5.8 nM |  |
| Cc1cc(-c2noc(-c3scc(CC(C)C)c3C)n2)cc(C)c1OCC(O)CNC(=O)CO (racemic) [Example 23, rac-2-Hydroxy-N-(2-hydroxy-3-{4-[5-(4-isobutyl-3-methyl-thiophen-2-yl)-[1,2,4]oxadiazol-3-yl]-2,6-dimethyl-phenoxy}-propyl)acetamide] |  | −73 ± 2 |
| Cc1cc(CCC(=O)c2scc(CC(C)C)c2CC(C)C)cc(C)c1O [Example 7, 1-(3,4-diisobutyl-thiophen-2-yl)-3-(4-hydroxy-3,5-dimethyl-phenyl)-propan-1-one] | 8.4 nM |  |
| COc1cc(OCC(O)CNC(=O)CO)ccc1-c1noc(-c2cc(CC(C)C)c(C)s2)n1 (stereo not drawn) [Example 46, 2-hydroxy-N-(2-hydroxy-3-{4-[5-(4-isobutyl-5-methyl-thiophen-2-yl)-[1,2,4]oxadiazol-3-yl]-3-methoxy-phenoxy}-propyl)-acetamide] |  | −77 ± 3 |
| CCc1cc(-c2nnc(-c3cc(CC(C)C)c(C)s3)o2)cc(C)c1OC[C@@H](O)CNC(=O)CO [Example 64, N—((S)-3-{2-ethyl-4-[5-(4-isobutyl-5-methyl-thiophen-2-yl)-[1,3,4]oxadiazol-2-yl]-6-methyl-phenoxy}-2-hydroxy-propyl)-2-hydroxy-acetamide] |  | −66 ± 1 |

Now from value to molecule, other results behind:

| EC50 [1] | Structure (SMILES) | Lymphocyte counts [2] |
| --- | --- | --- |
| 0.4 nM | CCc1cc(-c2nnc(-c3sc(C)c(CC(C)C)c3C)o2)cc(C)c1OC[C@@H](O)CNC(=O)CO [Example 109, (S)—N-(3-{2-Ethyl-4-[5-(4-isobutyl-3,5-dimethyl-thiophen-2-yl)-[1,3,4]oxadiazol-2-yl]-6-methyl-phenoxy}-2-hydroxy-propyl)-2-hydroxy-acetamide] |  |
| 2.1 nM | Cc1cc(-c2noc(-c3sc(C)c(CC(C)C)c3C)n2)cc(C)c1OCC(O)CNC(=O)CO (racemic) [Example 50, rac-2-Hydroxy-N-(2-hydroxy-3-{4-[5-(4-isobutyl-3,5-dimethyl-thiophen-2-yl)-[1,2,4]oxadiazol-3-yl]-2,6-dimethyl-phenoxy}-propyl)acetamide] | −93 ± 1 |
| 5.5 nM | CCc1cc(-c2noc(-c3cc(CC(C)C)c(C)s3)n2)cc(C)c1OCC(O)CNC(=O)CO (racemic) [Example 16, rac-N-(3-{2-Ethyl-4-[5-(4-isobutyl-5-methyl-thiophen-2-yl)-[1,2,4]oxadiazol-3-yl]-6-methyl-phenoxy}-2-hydroxy-propyl)-2-hydroxy-acetamide] |  |
| 7.5 nM | CCCc1c(CC(C)C)csc1C(=O)CCc1cc(C)c(OC[C@@H](O)CO)c(C)c1 [Example 8, 3-[4-((S)-2,3-dihydroxy-propoxy)-3,5-dimethyl-phenyl]-1-(4-isobutyl-3-propyl-thiophen-2-yl)-propan-1-one] |  |
| 1.1 nM | Cc1cc(-c2noc(-c3scc(CC(C)C)c3C)n2)cc(C)c1OC[C@@H](O)CNC(=O)CO [Example 70, (S)-2-Hydroxy-N-(2-hydroxy-3-{4-[5-(4-isobutyl-3-methyl-thiophen-2-yl)-[1,2,4]oxa-diazol-3-yl]-2,6-dimethyl-phenoxy}-propyl)-acetamide] |  |
| 7.5 nM | CCc1cc(-c2noc(-c3cc(CC(C)C)c(C)s3)n2)cc(C)c1CCC(=O)NCCO [Example 58, 3-{2-ethyl-4-[5-(4-isobutyl-5-methyl-thiophen-2-yl)-[1,2,4]oxadiazol-3-yl]-6-methyl-phenyl}-N-(2-hydroxy-ethyl)-propionamide] |  |
